Measured values as given in US20250108119A1, “NOVEL STEROID PAYLOADS, STEROID LINKERS, ADCs CONTAINING AND USE THEREOF” (IMMUNEXT, INC., priority 2021, published 2025).
Where two headings read alike, the source gives them in different places.

Tests used:
human PBMC = experiment: Cytokine production (IL-1β, IL-6) at 24 hr by human PBMC incubated with 1 ng/mL LPS; format: cell-based; settings: for inhibition of IL-1β production / inhibition of IL-6 production: free steroid payloads, serial dilutions, 1 ng/mL LPS, 24 hr
Description: (§1) FIG. 51: INX-SM-3, INX-SM-4, and INX-SM-1 inhibit IL-1β (left) and IL-6 (right) production. Cytokine levels were measured at 24 hr for human PBMCS incubated with 1 ng/mL LPS and serial dilutions (1000-1 nM) of steroid payloads, with the no treatment control plotted on the log-scale x-axis at <1 nM; n=1 donor, standard deviation plotted from technical duplicates.
as §1, with “52: INX-SM-1,” for “51:”, “INX-SM-4” for “INX-SM-4,”, “INX-SM-6” for “INX-SM-1”, “IL-1β” for “IL-1β (left) and IL-6 (right)”, “levels” for “levels were”, “ng/ml” for “ng/mL”
(§2) FIG. 53: INX-SM-9, INX-SM-31 and INX-SM-35 inhibit IL-1β (top) and IL-6 (bottom) production. Cytokine levels measured at 24 hr for human PBMCS incubated with 1 ng/mL LPS and serial dilutions (1000-0.2 nM) of steroid payloads, with the no treatment control plotted on the log-scale x-axis at <0.2 nM; n=2 donors-representative donor shown. Standard deviation plotted from technical duplicates.
as §2, with “54: INX-SM-32 inhibits” for “53: INX-SM-9, INX-SM-31 and INX-SM-35 inhibit”, “(500-1” for “(1000-0.2”, “<1” for “<0.2”, “n=2. Representative” for “n=2 donors-representative”
Cytokine levels measured at 24 hr for human PBMCS incubated with 1 ng/ml LPS and serial dilutions (1000-0.5 nM) of steroid payloads, with the no treatment control plotted on the log-scale x-axis at <0.5 nM; n=1 donor, standard deviation plotted from technical duplicates.
FIG. 56: INX-SM-2 and INX-SM-7 show inhibition in IL-1β. Average Cytokine levels measured at 24 hr for human PBMCS incubated with 1 ng/ml LPS and serial dilutions (1000-0.16 nM) of steroid payloads, with the no treatment control plotted on the log-scale x-axis at <0.16 nM; n=1, standard deviation plotted from technical duplicates. […]
Average cytokine levels measured at 24 hr for human PBMC incubated with 1 ng/ml LPS and serial dilutions (100-0.032 nM) of glucocorticoid payloads; n=1, mean of technical duplicates.
Average cytokine levels measured at 24 hr for human PBMC incubated with 1 ng/mL LPS and serial dilutions (1000-0.32 nM) of glucocorticoid payloads; n=1, mean of technical duplicates.
Cytokine levels measured at 24 hr for human PBMC incubated with 1 ng/mL LPS and serial dilutions (1000-0.5 nM) of steroid payloads, with the no treatment control plotted on the log-scale x-axis at <0.5 nM; n=1 donor, mean of technical duplicates plotted.
Average cytokine levels for A. hull-1β B. huIL-6 measured at 24 hr for human PBMC incubated with 1 ng/mL LPS and serial dilutions (1000-0.16 nM) of conjugated steroid linker payloads, with the no treatment control plotted on the log-scale x-axis at <0.16 nM; n=1, standard deviation plotted from technical duplicates. Values above the ULOQ (12,500 pg/mL for IL-1b and 150,000 pg/mL for IL-6) were plotted as the extrapolated value.
Average cytokine levels for IL-1β measured at 24 hr for human PBMC incubated with 1 ng/mL LPS and serial dilutions (1000-0.16 nM) of conjugated steroid linker payloads, with the no treatment control plotted on the log-scale x-axis at <0.16 nM; n=1, mean plotted of technical duplicates
Average cytokine levels for IL-1β measured at 24 hr for human PBMC incubated with 1 ng/mL LPS and serial dilutions (1000-0.16 nM) of conjugated steroid linker payloads, with the no treatment control plotted on the log-scale x-axis at <0.16 nM; n=1, mean plotted of technical duplicates.
FIG. 66: Analogs of INX V are potent relative to INX231J. […]

[1] = tested on: LPS stimulated human PBMCs; experiment: LPS stimulated human PBMC, IL-1β and IL-6 ELISA; format: cell-based
Description: The potency of novel steroids was assessed in a model of LPS stimulated human peripheral blood mononuclear cells (PBMCS). Stimulated PBMCs in this assay produce multiple pro-inflammatory cytokines1.
In all the following experiments, human PBMC, isolated from 1-2 healthy donors per study, were stimulated with LPS to induce cytokine production.
LPS was added either immediately after addition of free payload, or in the case of conjugates, four hours after addition of the conjugate.
Cells were plated in flat bottom 96 well plates at a final concentration of 150,000 cells/well, with technical duplicates for each condition.
Test agents were serially diluted in the assay media and added to a final concentration of 1,000 nM-1 nM or 0.2 nM depending on the assay or as a no treatment control.
LPS stimulation was added to a final concentration of 1 ng/ml.
Human IL-1β and IL-6 ELISA kits were used on supernatants according to vendor protocols. All graphs were prepared with GraphPad (Prism).

SMILES	inhibition of IL-1β production (human PBMC)	inhibition of IL-6 production (human PBMC)	also measured
C[C@]12C=CC(=O)C=C1CC[C@@H]1[C@@H]2[C@@H](O)C[C@@]2(C)[C@H]1C[C@H]1O[C@@H](c3ccc(CC4CC5(CNC5)C4)cc3)O[C@]12C(=O)CO [INX-SM-47, (6aR,6bS,7S,8aS,8bS,10R,11aR,12aS,12bS)-10-(4-((2-azaspiro[3.3]heptan-6-yl)methyl)phenyl)-7-hydroxy-8b-(2-hydroxyacetyl)-6a,8a-dimethyl-1,2,6a,6b,7,8,8a,8b,11a,12,12a,12b-dodecahydro-4H-naphtho[2′,1′:4,5]indeno[1,2-d][1,3]dioxol-4-one 2,2,2-trifluoroacetate]	weakly inhibit	weakly inhibit	inhibition of IL-1β and IL-6 [1]: weakly inhibit IL-1β and IL-6
C[C@]12C=CC(=O)C=C1CC[C@@H]1[C@@H]2[C@@H](O)C[C@@]2(C)[C@H]1C[C@H]1O[C@@H](c3ccc(CC4(N)COC4)cc3)O[C@]12C(=O)CO [INX-SM-33, (6aR,6bS,7S,8aS,8bS,10R,11aR,12aS,12bS)-10-(4-((3-aminooxetan-3-yl)methyl)phenyl)-7-hydroxy-8b-(2-hydroxyacetyl)-6a,8a-dimethyl-1,2,6a,6b,7,8,8a,8b,11a,12,12a,12b-dodeca hydro-4H-naphtho[2′,1′:4,5]indeno[1,2-d][1,3]dioxol-4-one]	modest inhibition	modest inhibition	potency of free payloads (conclusions) [1]: lowest potency among the R stereoisomers of the series; inhibition of IL-1β and IL-6 production ([1]; Experiment 5: free payload 1000-0.5 nM, 24 hr): modest inhibition of cytokine production
C[C@]12C=CC(=O)C=C1CC[C@@H]1[C@@H]2[C@@H](O)C[C@@]2(C)[C@H]1C[C@H]1O[C@@H](c3ccc(CC4CC45CCC(N)CC5)cc3)O[C@]12C(=O)CO (stereo partly drawn) [INX-SM-46, (6aR,6bS,7S,8aS,8bS,10R,11aR,12aS,12bS)-10-(4-((6-aminospiro[2.5]octan-1-yl)methyl)phenyl)-7-hydroxy-8b-(2-hydroxyacetyl)-6a,8a-dimethyl-1,2,6a,6b,7,8,8a,8b,11a,12,12a,12b-dodecahydro-4H-naphtho[2′,1′:4,5]indeno[1,2-d][1,3]dioxol-4-one 2,2,2-trifluoroacetate]	more modest inhibition		inhibition of IL-1β production ([1]; Experiment 8: free payload 1000-0.5 nM): more modest inhibition of cytokine production
C[C@]12C=CC(=O)C=C1CC[C@@H]1[C@@H]2[C@@H](O)C[C@@]2(C)[C@H]1C[C@H]1CN(c3ccc(Cc4cccc(N)c4)cc3)C[C@]12C(=O)CO [INX-SM-40, (6aR,6bS,7S,8aS,8bS,11aR,12aS,12bS)-10-(4-(3-aminobenzyl)phenyl)-7-hydroxy-8b-(2-hydroxyacetyl)-6a,8a-dimethyl-1,6a,6b,7,8,8a,8b,9,10,11,11a,12,12a,12b-tetradecahydronaphtho[2′,1′:4,5]indeno[1,2-c]pyrrol-4 (2H)-one]	weakly inhibit	weakly inhibit	inhibition of IL-1β and IL-6 ([1]; Experiment 12: free payloads 1000-0.15 nM): weakly inhibit IL-1β and IL-6
C[C@]12C=CC(=O)C=C1[C@@H](F)C[C@H]1[C@@H]3C[C@H]4O[C@@H](c5ccc(CC6CC7(C6)CC(NC(=O)[C@H](CCC(=O)O)NC(=O)CNC(=O)CBr)C7)cc5)O[C@@]4(C(=O)CO)[C@@]3(C)C[C@H](O)[C@@]12F (stereo partly drawn) [INX A23, (S)-4-(2-(2-bromoacetamido)acetamido)-5-((6-(4-((2S,6aS,6bR,7S,8aS,8bS,10R,11aR,12aS,12bS)-2,6b-difluoro-7-hydroxy-8b-(2-hydroxyacetyl)-6a,8a-dimethyl-4-oxo-2,4,6a,6b,7,8,8a,8b,11a,12,12a,12b-dodecahydro-1H-naphtho[2′,1′:4,5]indeno[1,2-d][1,3]dioxol-10-yl)benzyl)spiro[3.3]heptan-2-yl)amino)-5-oxopentanoic acid]			potency in reducing IL-1β production (human PBMC; anti-VISTA conjugates, serial dilutions with respect to total ADC concentration (20-0.003 μg/mL), equivalent or reduced DAR): enhanced potency; potency of conjugated linker payloads over INX J (conclusions) [1]: enhanced potency
